Data taken from patent publication US20130251782A1, “TOPICAL APPLICATION OF INGENOL MEBUTATE WITH OCCLUSION” (LEO LABORATORIES LIMITED, priority 2012, published 2013).
Read-outs that look alike come from different tables or passages of the source.

Legend:
[1] = cited from earlier work
[2] = In vitro skin permeation and penetration of PEP005, flow through diffusion cells; format: in vitro ADME, pig
From the text: The in vitro skin permeation and penetration of PEP005 was investigated with various types of occlusion dressings, using flow through diffusion cells. Dressings were applied immediately (without formulation drying), as well as after the formulation had dried. Additionally, PEP005 might also be absorbed into the occlusion dressing, which also was investigated.
Methods: The in vitro permeation and penetration of PEP005 into pig ear skin was studied using PermeGear® flow through diffusion cells (n=6 per formulation). The skin diffusion experiment was allowed to proceed for 21 hours into a recipient phase consisting of 0.04 M isotonic phosphate buffer pH 7.4. Samples from the different skin layers and recipient phase were collected in order to determine flux and skin distribution of PEP005. The samples were analysed by LC-MS/MS.
The test formulation used is an aqueous based gel formulation containing; PEP005 0.5 mg/g, Benzyl Alcohol 9 mg/g, Isopropanol 300 mg/g, Citric acid 5.4 mg/g, Sodium Citrate dihydrate 1.4 mg/g, Hydroxyethyl Cellulose 15 mg/g and water up to 1 g, with a formulation pH of 3.2.
Full thickness skin from pig ears was used in the study. The ears were kept frozen at −18° C. until use. Before the experiment, the ears were placed in a refrigerator (2-8° C.) for slow defrosting. The hairs were removed using a veterinary hair trimmer. The skin was cleaned for subdermal fat using a scalpel, and two pieces of skin were cut from each ear. The pieces of skin were refrozen and kept for no longer than 4 weeks. […]
The used PermeGear® automated system incorporate nine flow through diffusion cells (1-9) made of clear glass, in which the donor and receptor chambers were separated by a diffusion membrane and held together by a pinch clamp. […] The specific volume was measured and registered for each cell. […]
Prior to application of the formulation, the experiment was started by starting the pump. […] The formulation was applied using a glass spatula and the residual amount of formulation was determined, thus giving the actual amount of formulation applied to the skin. […]

[3] = test system: sBCC lesion on the trunk or extremities; format: in vivo
From the text: The primary objective of the clinical trial was to evaluate the safety of PEP005 Gel, 0.05% when administered for up to 3 consecutive days application (Day 1, 2 and 3), to a sBCC lesion on the trunk and extremities.
Another objective of the clinical trial was to evaluate the efficacy of PEP005 Gel, 0.05% when administered for up to 3 consecutive days application (Day 1, 2 and 3), to a sBCC lesion on the trunk and extremities.
This was a phase 2, multi-centre, parallel group, open-label trial to evaluate the safety and efficacy of PEP005 (ingenol mebutate) Gel, 0.05%, when administered for up to 3 consecutive days (Day 1, 2 and 3) to a sBCC lesion on the trunk or extremities.
The trial population was planned to include 75 subjects aged at least 18 years with a primary diagnosed and histologically confirmed sBCC located on the trunk or extremities which was suitable for excision.
Eligible subjects were randomised to receive physician-applied trial medication in one of the following 3 treatment groups:
Group 1) PEP005 Gel, 0.05%, up to 3 consecutive days treatment, occluded with an aluminium disk;
Group 2) PEP005 Gel, 0.05%, up to 3 consecutive days treatment, occluded with an Opsite™ disk;
Group 3) PEP005 Gel, 0.05%, up to 3 consecutive days treatment, not occluded.
Eligible subjects received PEP005 Gel on Days 1, 2 and 3. […] If tolerability to trial medication was maintained, the subjects received all 3 doses of PEP005 Gel, 0.05%, regardless of whether the sBCC lesion being treated was resolved or not.
Subsequent follow-up visits for safety assessments were made on Days 2, 3 (as applicable), 4 (as applicable), 8, 15, 29, 57, 85 and 120. Histological and clinical efficacy assessments were only conducted at Day 120. If trial medication was not administered on Day 2 a follow-up visit on Day 3 or 4 was not necessary, unless clinically indicated. If trial medication was not administered on Day 3 a follow-up visit on Day 4 was not necessary, unless clinically indicated.
The volume of PEP005 Gel applied to the selected treatment area was 30 μl for lesions with the longest axes of between 4-10 mm and 50 μl for lesions with the longest axes of between 11-15 mm.
The actual treatment analysis set included the same subjects as in the full analysis set, i.e. 75 randomised subjects. However, 2 subjects who received the wrong treatment were assigned to their actual treatment group, i.e. PEP005 Aluminium Disk.
Thus, in the actual treatment analysis set 27 subjects were included in PEP005 Aluminium Disk group and 24 subjects both in PEP005 Opsite™ Disk group and PEP005 No Occlusion group.

For `C/C=C(/C)C(=O)O[C@H]1C(C)=C[C@]23C(=O)[C@@H](C=C(CO)[C@@H](O)[C@]12O)[C@H]1[C@@H](C[C@H]3C)C1(C)C` [PEP005, 2-methyl-2(Z)-butenoic acid (1aR,2S,5R,5aS,6S,8aS,9R,10aR)-5,5a-dihydroxy-4-(hydroxymethyl)-1,1,7,9-tetramethyl-11-oxo-1a,2,5,5a,6,9,10,10a-octahydro-1H-2,8a-methanocyclopenta[a]cyclopropa[e]cyclodecen-6-yl ester], the Stability in alcohols ([1]; alcohols such as benzyl alcohol and isopropyl alcohol) is given as “good stability”, the “Stability at low pH” value ([1]; low pH) is given as “good stability” and the “Increase in penetrated amount of PEP005 after occlusion compared to the non-occluded treatment” value ([2]; Study PMPN1028, all dressings) is given as 2-6 fold. For the same molecule, the “Increase in permeation of PEP005 compared to the non-occluded treatment” value ([2]; aluminium foil, parafilm, Coloplast vinyl film and Compeed, Study PMPN1028) was 9-10 fold, the “Increase in skin permeation compared to the non-occluded treatment” value ([2]; semi-occlusive dressing Flexifix, Study PMPN1028) was 3 fold and the “Number of subjects who received 1 dose (dosing continued only if tolerated)” value (“Number of subjects who received 1 dose” below) ([3]; Aluminium Disk group (n = 27)) was 22. For the same molecule, the “Number of subjects who received 2 doses (dosing continued only if tolerated)” value (“Number of subjects who received 2 doses” below) ([3]; Aluminium Disk group (n = 27)) was 2, the “Number of subjects who received 3 doses (dosing continued only if tolerated)” value (“Number of subjects who received 3 doses” for short) ([3]; Aluminium Disk group (n = 27)) was 13 and the “Subjects who received 1 dose (dosing continued only if tolerated)” value ([3]; Aluminium Disk group (n = 27)) was 81.5%. The “Subjects who received 2 doses (dosing continued only if tolerated)” value ([3]; Aluminium Disk group (n = 27)) was 7.4%, the “Subjects who received 3 doses (dosing continued only if tolerated)” value ([3]; Aluminium Disk group (n = 27)) was 11.1% and the “Number of subjects who received 1 dose” value ([3]; No Occlusion group (n = 24)) was 0. The “Number of subjects who received 2 doses” value ([3]; No Occlusion group (n = 24)) was 1, the “Number of subjects who received 3 doses” value ([3]; No Occlusion group (n = 24)) was 23 and the “Subjects who received 1 dose (dosing continued only if tolerated)” value ([3]; No Occlusion group (n = 24)) was 0.0%. For the same molecule, the “Subjects who received 2 doses (dosing continued only if tolerated)” value ([3]; No Occlusion group (n = 24)) was 4.2%, the “Subjects who received 3 doses (dosing continued only if tolerated)” value ([3]; No Occlusion group (n = 24)) was 95.8% and the “Number of subjects who received 1 dose” value ([3]; OpSite Disk group (n = 24)) was 0. The “Number of subjects who received 2 doses” value ([3]; OpSite Disk group (n = 24)) was 5, the “Number of subjects who received 3 doses” value ([3]; OpSite Disk group (n = 24)) was 19 and the “Subjects who received 1 dose (dosing continued only if tolerated)” value ([3]; OpSite Disk group (n = 24)) was 0.0%. For the same molecule, the “Subjects who received 2 doses (dosing continued only if tolerated)” value ([3]; OpSite Disk group (n = 24)) was 20.8% and the “Subjects who received 3 doses (dosing continued only if tolerated)” value ([3]; OpSite Disk group (n = 24)) was 79.2%.
